# Assay results: patent publication US20140004122A1, “METHODS FOR TREATING OR PREVENTING CHOLESTEROL RELATED DISORDERS” (AMGEN INC., priority 2011, published 2014)
# System: hypercholesterolemic subjects with a 10 year Framingham risk score of 10% or less
# Assay: 12 week monotherapy dose-ranging study (Example 24)
# Assay type: in vivo, human
# Experimental: Ezetimibe was not blinded. The end-of-study visit and the last estimation of lipids was at week 12 for subjects on Q4W IP schedule or on ezetimibe and week 14 for subjects on Q2W IP schedule.
# Males and females, ≧18 to ≦75 years of age, were eligible for this study. Fasting LDL-C was ≧100 mg/dL (2.6 mmol/L) and <190 mg/dL (4.9 mmol/L) and fasting triglycerides ≦400 mg/dL (4.5 mmol/L) by central laboratory at screening.
# The primary endpoint was the percent change from baseline in LDL-C at week 12. Secondary endpoints included percent changes in apolipoprotein B (ApoB), lipoprotein (a) (Lp(a)), and in the ratio of total cholesterol to high-density lipoprotein (HDL)-C. Tolerability and safety were also evaluated.
compound,measurement,setting,value
"O=C1[C@H](CC[C@H](O)c2ccc(F)cc2)[C@@H](c2ccc(O)cc2)N1c1ccc(F)cc1 [Ezetimibe, ezetimibe, reference compound]",percent change from baseline in LDL-C,"week 12, final data, ezetimibe QD PO",14%
same,Least squares mean percent change from baseline (%) in LDL-C,"week 12, Ezetimibe QD (N = 45)",−14.26%
